This test concerns HCT-116 human colon carcinoma cells. As to the kind of experiment: In vitro cytotoxicity, XTT assay in HCT-116 human colon carcinoma cells (72 h). In kind it is cell-based. As to conditions: for IC50: Homo sapiens, HCT-116, XTT, 72 hours, 4000 cells/well, read-out: IC50 HCT-116 (drug concentration required to inhibit cell proliferation to 50% of untreated control cells); for Ratio of IC50 of Compound I over Paclitaxel: HCT-116, ratio to paclitaxel IC50. As for the experimental part:
Cytotoxicity was assessed in HCT-116 human colon carcinoma cells by XTT (2,3-bis(2-methoxy-4-nitro-5-sulfphenyl)-5-[(phenylamino)carbonyl]2H-tetrazolium hydroxide) assay as reported in D. A. Scudiero, et al., "Evaluation of soluble tetrazolium/formazan assay for cell growth and drug sensitivity in culture using human and other tumor cell lines," Cancer Res. 48:4827-4833, 1988. Cells were plated at 4000 cells/well in 96 well microtiter plates and 24 hours later drugs were added and serial diluted. The cells were incubated at 37° C. for 72 hours at which time the tetrazolium dye, XTT, was added. A dehydrogenase enzyme in live cells reduces the XTT to a form that absorbs light at 450 nm which can be quantitated spectrophotometrically. The greater the absorbance, the greater the number of live cells. The results are expressed in Table I as an IC50, which is the drug concentration required to inhibit cell proliferation (i.e., absorbance at 450 nm) to 50% of that of untreated control cells.
(In general: Tetrazolium assays rely on reduction of a dye to a coloured formazan, in cell work by metabolically active cells.)

The values below come from US5840929A, “C4 methoxy ether derivatives of paclitaxel” (Bristol-Myers Squibb Company, priority 1996, dated 1998).

Regarding `CC(=O)O[C@H]1C(=O)[C@@]2(C)[C@H]([C@H](OC(=O)c3ccccc3)[C@]3(O)C[C@H](OC(=O)[C@H](O)[C@@H](NC(=O)c4ccccc4)c4ccccc4)C(C)=C1C3(C)C)[C@]1(OC(C)=O)CO[C@@H]1C[C@@H]2O` [Paclitaxel, paclitaxel], the IC50 fell in the range of 1.3 to 2.3 nM.
In the case of `CO[C@@]12CO[C@@H]1C[C@H](O)[C@@]1(C)C(=O)[C@H](OC(C)=O)C3=C(C)[C@@H](OC(=O)[C@H](O)[C@@H](NC(=O)OC(C)(C)C)c4ccccc4)C[C@@](O)([C@@H](OC(=O)c4ccccc4)[C@H]21)C3(C)C` [Compound Ic, 4-deacetyloxy-4-methoxy-3'-N-debenzoyl-3'-N-butoxycarbonyl(paclitaxel)], the “Ratio of IC50 of Compound I over Paclitaxel” value was 1.69 and the IC50 stood at 2.2 nM.
The like results for `CO[C@@]12CO[C@@H]1C[C@H](O)[C@@]1(C)C(=O)[C@H](OC(C)=O)C3=C(C)[C@@H](OC(=O)[C@H](O)[C@@H](NC(=O)c4ccccc4)c4ccccc4)C[C@@](O)([C@@H](OC(=O)c4ccccc4)[C@H]21)C3(C)C` [Compound Ia, 4-deacetyloxy-4-methoxypaclitaxel] were, in that order, 21.7 and 34.7 nM.
In the same order, the values of `CO[C@@]12CO[C@@H]1C[C@H](O)[C@@]1(C)C(=O)[C@H](OC(C)=O)C3=C(C)[C@@H](OC(=O)[C@H](O)[C@@H](NC(=O)OC(C)(C)C)c4ccco4)C[C@@](O)([C@@H](OC(=O)c4ccccc4)[C@H]21)C3(C)C` [Compound Ib, 4-deacetyloxy-4-methoxy-3'-desphenyl-3'-(2-furyl)-3'-N-debenzoyl-3'-N-butoxycarbonyl(paclitaxel)] are 1.61 and 3.7 nM.
